The results in this text go back to patent US9072758B2, “Cyclic amide derivative” (MOCHIDA PHARMACEUTICAL CO., LTD., priority 2011, dated 2015).

Bounds are passed on as bounds.

The target of this assay is T1, GPR40 of human origin (Homo sapiens, UniProt O14842).
T1 construct: expressed in transfected cells
T1 sequence (O14842 whole entry): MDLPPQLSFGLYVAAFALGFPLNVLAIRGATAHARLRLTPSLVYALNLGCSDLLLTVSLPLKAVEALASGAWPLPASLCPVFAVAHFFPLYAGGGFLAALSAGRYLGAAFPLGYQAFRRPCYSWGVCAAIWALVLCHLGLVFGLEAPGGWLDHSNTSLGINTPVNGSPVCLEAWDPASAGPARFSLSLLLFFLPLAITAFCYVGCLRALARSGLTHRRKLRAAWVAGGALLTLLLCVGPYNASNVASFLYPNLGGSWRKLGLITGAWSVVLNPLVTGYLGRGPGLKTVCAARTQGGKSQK
As to the kind of experiment: Agonist action on GPR40 of human origin (Ca2+ fluctuation in a CHO cell strain stably expressing GPR40). In kind it is cell-based. The settings on record: Calcium 4 Assay Kit, fluorescence intensity variation. Here is the method: A CHO cell strain stably expressing GPR40 of human origin was used to determine the agonist action of a title compound. This cell strain was seeded in a clear bottom 96 well plate at 2×10^4 cells/100 μL/well. The cell strain was cultured in a CO2 incubator overnight using a Ham's F-12 medium containing a 10% fetal bovine serum, 100 U/mL penicillin, 0.1 mg/mL streptomycin, and 400 μg/mL Geneticin. Calcium 4 Assay Kit (Molecular Devices) was used as a fluorescent calcium indicator. One mL of 77 mg/mL probenecid (Invitrogen) was added to 100 mL of a calcium indicator solution to prepare a solution (loading solution) mixed with a 20 mM HEPES-containing Hanks' balanced salt solution (HBSS) in equal proportions. To the cells from which the culture solution was removed, 200 μL of the loading solution was added, and the cells were cultured in a CO2 incubator for 1 hour. The title compound was diluted with a 20 mM HEPES-containing HBSS and was added to the cells by 50 μL, and the fluctuation of the Ca^2+ concentration was measured by an intracellular ion analyzer. The EC50 value of the title compound was calculated using the dose-response curve of fluorescence intensity variation.
Broadly, the EC50 is the concentration that produces a half-maximal response. As for `Cc1cccc(C)c1-c1cccc2c1CC[C@H]2Oc1ccc(C2CC(=O)NS(=O)(=O)C2)cc1` (stereo partly drawn) [Example 37, 5-(4-(((R)-4-(2,6-dimethylphenyl)-2,3-dihydro-1H-inden-1-yl)oxy)phenyl)-1,2-thiazinan-3-one 1,1-dioxide], the EC50 is less than 300 nM.

On to `COc1cc(C)c(-c2cccc3c2CC[C@H]3Oc2ccc(C3CC(=O)NS(=O)(=O)C3)cc2)c(C)c1` (stereo partly drawn) [Example 46, 5-(4-(((R)-4-(4-methoxy-2,6-dimethylphenyl)-2,3-dihydro-1H-inden-1-yl)oxy)phenyl)-1,2-thiazinan-3-one 1,1-dioxide], for which the EC50 is less than 300 nM.

On to `Cc1nc(OCCC(C)(C)O)ccc1Oc1cccc2c1CC[C@H]2Oc1ccc(C2CC(O)=N[S+]2[O-])cc1` (single isomer, unassigned) [51(A)-a], for which the EC50 is less than 300 nM.

As for `Cc1cc(O[C@@H]2CCc3c(-c4c(C)cc(OCCC(C)(C)O)cc4C)cccc32)ccc1C1CC(=O)NS(=O)(=O)C1` (stereo partly drawn) [Example 47, 5-(4-(((R)-4-(4-(3-hydroxy-3-methylbutoxy)-2,6-dimethylphenyl)-2,3-dihydro-1H-inden-1-yl)oxy)-2-methylphenyl)-1,2-thiazinan-3-one 1,1-dioxide], the EC50 was less than 300 nM.

For the molecule `[O-][S+]1N=C(O)CC1c1ccc(O[C@@H]2CCc3c(-c4cccnc4C(F)(F)F)cccc32)cc1` (single isomer, unassigned) [Example 65], the EC50 is less than 300 nM.

As for `CCOCCOc1cc(C)c(-c2cccc3c2CC[C@H]3Oc2ccc(C3CC(O)=N[S+]3[O-])cc2)c(C)c1` (single isomer, unassigned) [Example 58], the EC50 was less than 300 nM.

Turning to `COc1ccc(Oc2cccc3c2CC[C@H]3Oc2ccc(C3CC(O)=N[S+]3[O-])cc2)cn1` (single isomer, unassigned) [52(A)-b], the EC50 was less than 300 nM.

As for `CCOCCOc1cc(C)c(-c2cccc3c2CC[C@H]3Oc2ccc(C3CC(=O)NS(=O)(=O)C3)cc2)c(C)c1` (stereo partly drawn) [Example 39, 5-(4-(((R)-4-(4-(2-ethoxyethoxy)-2,6-dimethylphenyl)-2,3-dihydro-1H-inden-1-yl)oxy)phenyl)-1,2-thiazinan-3-one 1,1-dioxide], the EC50 was less than 300 nM.

As to `COc1cc(C)c(-c2cccc3c2CC[C@H]3Oc2ccc(C3CC(O)=N[S+]3[O-])cc2)c(C)c1` (single isomer, unassigned) [Example 61], the EC50 was less than 300 nM.

`O=C1CC(c2ccc(O[C@@H]3CCc4c(Oc5ccccc5)cccc43)cc2)CS(=O)(=O)N1` (stereo partly drawn) [Example 49, 5-(4-(((R)-4-phenoxy-2,3-dihydro-1H-inden-1-yl)oxy)phenyl)-1,2-thiazinan-3-one 1,1-dioxide (C)]: the EC50 was less than 300 nM.

For `Cc1nc(OCCC(C)(C)O)ccc1Oc1cccc2c1CC[C@H]2Oc1ccc(C2CC(O)=N[S+]2[O-])cc1` (single isomer, unassigned) [51(A)-b], the 50% effective concentration (EC50) is less than 300 nM.

On to `Cc1cc(OCCCS(C)(=O)=O)cc(C)c1-c1cccc2c1CC[C@H]2Oc1ccc(C2CC(=O)N[S+]2[O-])cc1` (single isomer, unassigned) [Example 59], for which the EC50 was less than 300 nM.

Take `Cc1cccc(Oc2cccc3c2CC[C@H]3Oc2ccc(C3CC(O)=N[S+]3[O-])cc2)c1` (single isomer, unassigned) [53(A)-a]: the EC50 is less than 300 nM.

Take `Cc1ncccc1Oc1cccc2c1CC[C@H]2Oc1ccc(C2CC(O)=N[S+]2[O-])cc1` (single isomer, unassigned) [55(A)-a]: the EC50 was less than 300 nM.

With `COc1ccc(-c2cccc3c2CC[C@H]3Oc2ccc(C3CC(O)=N[S+]3[O-])cc2)c(C)n1` (single isomer, unassigned) [Example 63], the EC50 was less than 300 nM.

`Cc1ccc(F)cc1-c1cccc2c1CC[C@H]2Oc1ccc(C2CC(O)=N[S+]2[O-])cc1` (single isomer, unassigned) [Example 67]: the EC50 is less than 300 nM.

Take `CCOCCOc1cc(C)c(-c2cccc3c2CC[C@H]3Oc2ccc(C3CC(O)=N[S+]3[O-])cc2)c(C)c1` (single isomer, unassigned) [Example 57]: the EC50 was less than 300 nM.

As to `CCOCCOc1cc(C)c(-c2cccc3c2CC[C@H]3Oc2ccc(C3CC(=O)NS(=O)(=O)C3)cc2)c(C)c1` (stereo partly drawn) [Example 42, 5-(4-(((R)-4-(4-(2-ethoxyethoxy)-2,6-dimethylphenyl)-2,3-dihydro-1H-inden-1-yl)oxy)phenyl)-1,2-thiazinan-3-one 1,1-dioxide], the EC50 was less than 300 nM.

In the case of `O=C1CC(c2ccc(O[C@@H]3CCc4c(-c5ccccc5C(F)(F)F)cccc43)cc2)CS(=O)(=O)N1` (stereo partly drawn) [Example 44, 5-(4-(((R)-4-(2-(trifluoromethyl)phenyl)-2,3-dihydro-1H-inden-1-yl)oxy)phenyl)-1,2-thiazinan-3-one 1,1-dioxide], the EC50 was less than 300 nM.

Consider `CCOCCOc1ccc(-c2cccc3c2CC[C@H]3Oc2ccc(C3CC(O)=N[S+]3[O-])cc2)c(C)n1` (single isomer, unassigned) [54(A)-b], for which the EC50 was less than 300 nM.

`Cc1cccc(C)c1-c1cccc2c1CC[C@H]2Oc1ccc(C2CC(O)=N[S+]2[O-])cc1` (single isomer, unassigned) [Example 60]: the EC50 is less than 300 nM.

On to `O=C1CC(c2ccc(O[C@@H]3CCc4c(Oc5ccccc5)cccc43)cc2)CS(=O)(=O)N1` (stereo partly drawn) [Example 48, 5-(4-(((R)-4-phenoxy-2,3-dihydro-1H-inden-1-yl)oxy)phenyl)-1,2-thiazinan-3-one 1,1-dioxide], for which the EC50 was less than 300 nM.

Take `N#Cc1ccc(Oc2cccc3c2CC[C@H]3Oc2ccc(C3CC(=O)N[S+]3[O-])cc2)cc1` (single isomer, unassigned) [25(A)-b]: the EC50 is less than 300 nM.

Turning to `Cc1cc(OCCCS(C)(=O)=O)cc(C)c1-c1cccc2c1CC[C@H]2Oc1ccc(C2CC(=O)NS(=O)(=O)C2)cc1` (stereo partly drawn) [Example 45, 5-(4-(((R)-4-(2,6-dimethyl-4-(3-(methylsulfonyl)propoxy)phenyl)-2,3-dihydro-1H-inden-1-yl)oxy)phenyl)-1,2-thiazinan-3-one 1,1-dioxide], the EC50 is less than 300 nM.

Take `Cc1ncccc1Oc1cccc2c1CC[C@H]2Oc1ccc(C2CC(O)=N[S+]2[O-])cc1` (single isomer, unassigned) [55(A)-b]: the 50% effective concentration (EC50) was less than 300 nM.

On to `O=C1CC(c2ccc(O[C@@H]3CCc4c(-c5ccccc5C(F)(F)F)cccc43)cc2)CS(=O)(=O)N1` (stereo partly drawn) [Example 38, 5-(4-(((R)-4-(2-(trifluoromethyl)phenyl)-2,3-dihydro-1H-inden-1-yl)oxy)phenyl)-1,2-thiazinan-3-one 1,1-dioxide], for which the EC50 was less than 300 nM.

For `CCOCCOc1ccc(-c2cccc3c2CC[C@H]3Oc2ccc(C3CC(O)=N[S+]3[O-])cc2)c(C)n1` (single isomer, unassigned) [54(A)-a], the EC50 was less than 300 nM.

`Cc1nc(OCCC(C)(C)O)ccc1-c1cccc2c1CC[C@H]2Oc1ccc(C2CC(=O)N[S+]2[O-])cc1` (single isomer, unassigned) [23(A)-a]: the EC50 is less than 300 nM.

Regarding `Cc1ccccc1-c1cccc2c1CC[C@H]2Oc1ccc(C2CC(O)=N[S+]2[O-])cc1` (single isomer, unassigned) [Example 66], the EC50 was less than 300 nM.

Regarding `Cc1nc(OCCCS(C)(=O)=O)ccc1-c1cccc2c1CC[C@H]2Oc1ccc(C2CC(O)=N[S+]2[O-])cc1` (single isomer, unassigned) [Example 62], the EC50 is less than 300 nM.

On to `Cc1cccc(Oc2cccc3c2CC[C@H]3Oc2ccc(C3CC(O)=N[S+]3[O-])cc2)c1` (single isomer, unassigned) [53(A)-b], for which the EC50 was less than 300 nM.

Regarding `COc1ccc(Oc2cccc3c2CC[C@H]3Oc2ccc(C3CC(O)=N[S+]3[O-])cc2)cn1` (single isomer, unassigned) [52(A)-a], the EC50 is less than 300 nM.

For `CCOc1ccc(F)cc1-c1cccc2c1CC[C@H]2Oc1ccc(C2CC(O)=N[S+]2[O-])cc1` (single isomer, unassigned) [Example 69], the EC50 is less than 300 nM.

With `COc1cccc(F)c1-c1cccc2c1CC[C@H]2Oc1ccc(C2CC(O)=N[S+]2[O-])cc1` (single isomer, unassigned) [Example 68], the EC50 is less than 300 nM.

In the case of `[O-][S+]1N=C(O)CC1c1ccc(O[C@@H]2CCc3c(-c4ccccc4C(F)(F)F)cccc32)cc1` (single isomer, unassigned) [Example 64], the EC50 is less than 300 nM.

Take `Cc1nc(OCCC(C)(C)O)ccc1-c1cccc2c1CC[C@H]2Oc1ccc(C2CC(=O)NS(=O)(=O)C2)cc1` (stereo partly drawn) [Example 36, 5-(4-(((R)-4-(6-(3-hydroxy-3-methylbutoxy)-2-methylpyridin-3-yl)-2,3-dihydro-1H-inden-1-yl)oxy)phenyl)-1,2-thiazinan-3-one 1,1-dioxide]: the concentration for a half-maximal effect (EC50) was less than 300 nM.

In the case of `Cc1cccc(C)c1-c1cccc2c1CC[C@H]2Oc1ccc(C2CC(=O)NS(=O)(=O)C2)cc1` (stereo partly drawn) [Example 43, 5-(4-(((R)-4-(2,6-dimethylphenyl)-2,3-dihydro-1H-inden-1-yl)oxy)phenyl)-1,2-thiazinan-3-one 1,1-dioxide], the EC50 was less than 300 nM.
